Our source for the Retention time and MIC values is PMC6383929, “Design, antimicrobial activity and mechanism of action of Arg-rich ultra-short cationic lipopeptides” (PLoS ONE, 2019).

Series [1] in a line: RP-HPLC retention time (hydrophobicity). The format is physicochemical. The conditions noted are these: stated to reliably reflect the hydrophobicity in aqueous solution, assessed and provided by GenScript. The procedure: GenScript (Piscataway, NJ, USA) carried out the custom synthesis of USCLs by using high efficient solid phase peptide synthesis. The fatty acid was conjugated to the N-terminus of the peptide using the same procedure followed to attach protected amino acids to the growing peptide chain for synthesis. The purity (>90%), sequence and molecular weight of USCLs were assessed and provided by GenScript using RP-HPLC and ESI-MS. USCLs were dissolved in sterile water or DMSO at 10 mg/mL, according to manufacturer's indications.

The test system of another series is P. aeruginosa ATCC 27853. The format is cell-based, Pseudomonas aeruginosa. From the text:
(§1) Bacteria used in this study were Escherichia coli ATCC 25922 and O18K1H7, Staphylococcus aureus ATCC 25923 and ATCC 29213, Pseudomonas aeruginosa ATCC 27853, Staphylococcus epidermidis ATCC 12228, Enterococcus faecalis ATCC 29212, Bacillus subtilis DSM 4181, Listeria monocytogenes DSM 20600, Salmonella typhimurium ATCC 14028, Acinetobacter baumannii ATCC 19606 and 17978, Klebsiella pneumoniae ATCC 13883 and 700603, Stenotrophomonas maltophilia ATCC 13637 and Burkholderia cenocepacia J2315. In addition to reference strains, a clinical isolate of E. faecalis vancomycin-resistant (VREF, strain M), and three clinical isolates of S. aureus methicillin-resistant (MRSA, strains E, G and 11), kindly provided by Dr. Lucilla Dolzani, were used. All MRSA strains are resistant to GEN, IPM, OXA, PEN, CIP and CEF; the S. aureus E strain is also resistant to CLI and ERY. VREF strain is resistant to AMK, ATM, GEN, NET, PEN, TEC, TET, TOB and VAN.
(§2) For the assays, overnight bacterial cultures were diluted 1:30 in fresh Mueller-Hinton Broth (MHB, Difco) and incubated at 37°C with shaking for approximately 2h.
(§3) The antimicrobial activity of USCLs was determined by the Minimum Inhibitory Concentration (MIC) assay, according to the guidelines of CLSI (Clinical & Laboratory Standards Institute) and described in [30, 31]. Briefly, the assays were performed in 96-well microplates in appropriate broth (MHB or SAB). […] For bacteria, a mid-log phase bacterial suspension at 2.5 × 10^5 CFU/mL in MHB was used, and the microplates incubated at 37°C for 24h. The fungal suspension in SAB broth was used at a final concentration of 5 × 10^4 cells/mL. Microplates were then incubated at 30°C for 48h. The MIC value was taken as the lowest concentration of USCLs resulting in the complete inhibition of visible bacterial or fungal growth after appropriate incubation time. Results derive from at least three independent experiments carried out in duplicate.

The subject of the next series is S. aureus ATCC 25923. It is filed as cell-based, Staphylococcus aureus.
Source text: as §1, §2, §3

The test system of another series is E. coli ATCC 25922. The format is cell-based, Escherichia coli.
Source text: as §1, §2, §3

Setting [2] is: MHB, 2.5 × 10^5 CFU/mL, 24h at 37°C, at least three independent experiments in duplicate.

≈ marks a conversion by molar mass, not a printed value. Where two headings read alike, the source gives them in different places. Where a SMILES comes first, the peptide text is derived from it. The star is where a group is joined. Myristoyl = CCCCCCCCCCCCCC(=O)*; Lauroyl = CCCCCCCCCCCC(=O)*; Decanoyl = CCCCCCCCCC(=O)*; Octanoyl = CCCCCCCC(=O)*; Hexanoyl = CCCCCC(=O)* Where only a bound is given, the exact number is not on record here.

In series [1], `CCCCCCCCCCCC(=O)N[C@@H](CCCNC(=N)N)C(=O)N[C@@H](C)C(=O)N[C@@H](Cc1c[nH]c2ccccc12)C(=O)N[C@@H](CCCNC(=N)N)C(N)=O` [Lp-A, Lau-RAWR-NH2] (Lauroyl-RAWR-NH2) displayed a Retention time of 18.931 min. Further, the MIC in the series with P. aeruginosa ATCC 27853 (ATCC 27853, 24 h) is 25 µg/mL (≈ 32.5 µM); with S. aureus ATCC 25923 (ATCC 25923, 24 h), 6.25 µg/mL (≈ 8.13 µM).

In the case of `CCCCCCCCCCCC(=O)N[C@@H](CCCNC(=N)N)C(=O)N[C@@H](CS)C(=O)N[C@@H](Cc1c[nH]c2ccccc12)C(=O)N[C@@H](CCCNC(=N)N)C(N)=O` [Lp-C, Lau-RCWR-NH2] (Lauroyl-RCWR-NH2), the MIC is 200 µg/mL (≈ 250 µM) in the series on E. coli ATCC 25922 (ATCC 25922, 24 h); 200 µg/mL (≈ 250 µM) against P. aeruginosa ATCC 27853 (ATCC 27853, 24 h); 50 µg/mL (≈ 62.4 µM) against S. aureus ATCC 25923 (ATCC 25923, 24 h). The same molecule came in with a Retention time in series [1] of 22.492 min.

With `CCCCCCCCCC(=O)N[C@@H](CCCNC(=N)N)C(=O)N[C@@H](Cc1ccccc1)C(=O)N[C@@H](Cc1c[nH]c2ccccc12)C(=O)N[C@@H](CCCNC(=N)N)C(N)=O` [Lp-F^Dec, Dec-RFWR-NH2] (Decanoyl-RFWR-NH2), the MIC worked out at 25 µg/mL (≈ 30.6 µM) with E. coli ATCC 25922 (ATCC 25922, 24 h) and 50 µg/mL (≈ 61.2 µM) with P. aeruginosa ATCC 27853 (ATCC 27853, 24 h). Further, the Retention time in series [1] came out at 22.639 min.

As for `CCCCCC(=O)N[C@@H](CCCNC(=N)N)C(=O)N[C@@H](Cc1ccccc1)C(=O)N[C@@H](Cc1c[nH]c2ccccc12)C(=O)N[C@@H](CCCNC(=N)N)C(N)=O` [Lp-F^Hex, Hex-RFWR-NH2] (Hexanoyl-RFWR-NH2), the MIC with E. coli ATCC 25922 (setting [2]) was greater than 400 µg/mL; with P. aeruginosa ATCC 27853 (setting [2]), greater than 400 µg/mL; in the series with S. aureus ATCC 25923 (MHB, 2.5 × 10^5 CFU/mL, 24h at 37°C, at least three independent experiments in duplicate, two values when replicates differed by one well) it was greater than 400 µg/mL. This molecule came in with a Retention time in series [1] of 18.675 min.

Turning to `CCCCCCCCCCCCCC(=O)N[C@@H](CCCNC(=N)N)C(=O)N[C@@H](Cc1ccccc1)C(=O)N[C@@H](Cc1c[nH]c2ccccc12)C(=O)N[C@@H](CCCNC(=N)N)C(N)=O` [Lp-F^Myr, Myr-RFWR-NH2] (Myristoyl-RFWR-NH2), in series [1], the Retention time came to 26.654 min. For the same molecule, the MIC in the series on P. aeruginosa ATCC 27853 (ATCC 27853, 24 h) was found to be 50 µg/mL (≈ 57.3 µM); against S. aureus ATCC 25923 (ATCC 25923, 24 h), 6.25 µg/mL (≈ 7.16 µM).

`CCCCCCCC(=O)N[C@@H](CCCNC(=N)N)C(=O)N[C@@H](Cc1ccccc1)C(=O)N[C@@H](Cc1c[nH]c2ccccc12)C(=O)N[C@@H](CCCNC(=N)N)C(N)=O` [Lp-F^Oct, Oct-RFWR-NH2] (Octanoyl-RFWR-NH2) gave a Retention time in series [1] of 17.974 min. Moreover, the MIC came to 100 µg/mL (≈ 127 µM) in the series on P. aeruginosa ATCC 27853 (ATCC 27853, 24 h) and 100 µg/mL (≈ 127 µM) against S. aureus ATCC 25923 (ATCC 25923, 24 h).

With `CCCCCCCCCCCC(=O)N[C@@H](CCCNC(=N)N)C(=O)NCC(=O)N[C@@H](Cc1c[nH]c2ccccc12)C(=O)N[C@@H](CCCNC(=N)N)C(N)=O` [Lp-G, Lau-RGWR-NH2] (Lauroyl-RGWR-NH2), the MIC was 25 µg/mL (≈ 33.1 µM) in the series with E. coli ATCC 25922 (ATCC 25922, 24 h); 50 µg/mL (≈ 66.2 µM) against P. aeruginosa ATCC 27853 (ATCC 27853, 24 h); 6.25 µg/mL (≈ 8.28 µM) against S. aureus ATCC 25923 (ATCC 25923, 24 h). The same molecule displayed a Retention time in series [1] of 18.415 min.

`CCCCCCCCCCCC(=O)N[C@@H](CCCNC(=N)N)C(=O)N[C@@H](Cc1c[nH]cn1)C(=O)N[C@@H](Cc1c[nH]c2ccccc12)C(=O)N[C@@H](CCCNC(=N)N)C(N)=O` [Lp-H, Lau-RHWR-NH2] (Lauroyl-RHWR-NH2): the MIC against E. coli ATCC 25922 (ATCC 25922, 24 h) stood at 25 µg/mL (≈ 29.9 µM); against P. aeruginosa ATCC 27853 (ATCC 27853, 24 h), 100 µg/mL (≈ 120 µM); against S. aureus ATCC 25923 (ATCC 25923, 24 h), 6.25 µg/mL (≈ 7.48 µM). The same molecule came in with a Retention time in series [1] of 21.476 min.

Regarding `CCCCCCCCCCCC(=O)N[C@@H](CCCNC(=N)N)C(=O)N[C@@H](CC(C)C)C(=O)N[C@@H](Cc1c[nH]c2ccccc12)C(=O)N[C@@H](CCCNC(=N)N)C(N)=O` [Lp-L, Lau-RLWR-NH2] (Lauroyl-RLWR-NH2), the MIC was 25 µg/mL (≈ 30.8 µM) with E. coli ATCC 25922 (ATCC 25922, 24 h) and 25 µg/mL (≈ 30.8 µM) in the series with P. aeruginosa ATCC 27853 (ATCC 27853, 24 h). This molecule also came in with a Retention time in series [1] of 23.079 min.

With `CCCCCCCCCCCC(=O)N[C@@H](CCCNC(=N)N)C(=O)N[C@@H](CO)C(=O)N[C@@H](Cc1c[nH]c2ccccc12)C(=O)N[C@@H](CCCNC(=N)N)C(N)=O` [Lp-S, Lau-RSWR-NH2] (Lauroyl-RSWR-NH2), the MIC against E. coli ATCC 25922 (ATCC 25922, 24 h) came to 25 µg/mL (≈ 31.8 µM); with P. aeruginosa ATCC 27853 (ATCC 27853, 24 h), 25 µg/mL (≈ 31.8 µM); in the series with S. aureus ATCC 25923 (ATCC 25923, 24 h) it was 6.25 µg/mL (≈ 7.96 µM). The molecule also registered a Retention time in series [1] of 16.117 min.

For the molecule `CCCCCCCCCCCC(=O)N[C@@H](CCCNC(=N)N)C(=O)N[C@H](C(=O)N[C@@H](Cc1c[nH]c2ccccc12)C(=O)N[C@@H](CCCNC(=N)N)C(N)=O)C(C)C` [Lp-V, Lau-RVWR-NH2] (Lauroyl-RVWR-NH2), the MIC is 12.5 (12.5) μg/mL against E. coli ATCC 25922 (ATCC 25922, 24 h) and 6.25 (6.25) μg/mL with S. aureus ATCC 25923 (ATCC 25923, 24 h). The Retention time in series [1] came to 19.317 min.

Lau-RFWR-NH2 [Lp-F^Lau] gave a Retention time in series [1] of 23.592 min.
